Values of other authors, collected in patent US4127517A, “Novel docosapeptides, intermediates therefore and pharmaceutical compositions and methods employing said docosapeptides” (priority 1977, dated 1978).

Key:
[1] = tested on: brain opiate receptor sites
[2] = injected directly into the brain of the rat

In the case of “H-Tyr-Gly-Gly-Phe-Met-OH [methionine enkephalin]”, the “binding to partially purified brain opiate receptor sites” value [1] is listed as “binds stereo-specifically” and the analgesic activity [2] is listed as “weak analgesic agent of short duration”.
